Measured values published in patent publication US11001591B2, “TRAF 6 inhibitors” (HELMHOLTZ ZENTRUM MUENCHEN—DEUTSCHES FORSCHUNGSZENTRUM FÜR …, priority 2016, dated 2021).

How the values were obtained:
clAP1 = target: T1, clAP1 (Homo sapiens, UniProt Q13490); assay: In vitro ubiquitination assay, clAP1; format: biochemical; conditions: RING E3 ligase; K63 chain formation
T1 construct: purchased Boston Biochem one of K-102, K-260, K-200B, K-220, K-240, K-270
Experimental: For analysis of clAP1, MDM2, TRIM63, RNF4, ITCH and E6AP mediated poly-ubiquitination, the respective ubiquitin ligase kit from Boston Biochem (K-102, K-260, K-200B, K-220, K-240 and K-270) was used. Here, reaction buffer, E1, E2 and E3 enzyme (and p53 substrate in case of MDM2) were mixed and pre-incubated with compound or DMSO for 5 minutes at room temperature before adding Mg^2+-ATP and mono-ubiquitin for reaction start. Ubiquitination was visualized by Western Blot analyses.

IKK kinase activity = assay: IKK kinase assay in Jurkat T-cells; format: cell-based, human; conditions: PMA/Ionomycin
Experimental: For MEF cells, 5.5×10^5 cells were seeded, then treated with compound for 6 hours and eventually stimulated with IL-1β or TNFα for 8 minutes. 1×10^6 Jurkat T-cells were treated with compound for 6 hours and finally stimulated with PMA (400 ng/ml) and lonomycin (600 ng/ml) for 8 minutes. After cell lysis in Co-IP lysis buffer (150 mM NaCl; 25 mM Hepes (pH 7.5); 0.2% NP-40; 1 mM Glycerol; 10 mM NaF; 8 mM β-Glycerophosphat; 1 mM DTT; 300 μM Sodium-vanadate; complete protease inhibitor), input samples were taken and the supernatant was then incubated with 6 μL IKKγ antibody FL-419 (Santa Cruz Biotechnology). Upon incubation with Protein-G-Sepharose beads (GE Healthcare), beads were washed in Co-IP wash buffer (150 mM NaCl; 25 mM Hepes (pH 7.5); 0.2% NP-40; 1 mM Glycerol) and transferred into kinase reaction buffer ([…] HEPES pH7.9; 10 mM MgCl2; 20 μM ATP; 20 mM β-Glycerophosphat; 200 μM Sodium-Vanadate; 1 mM DTT) supplemented with […] GST-IκBα (1-53) and 0.5 μL ^32P-γ-ATP. After 30 minutes incubation at 37° C., reaction was stopped and analyzed by autoradiography as well as Western Blot after separation on SDS-PAGE.

IL-2 and TNFα [1] = assay: mRNA expression of TCR target genes in Jurkat T-cells; format: cell-based, human; conditions: PMA/Ionomycin
Experimental: For MEF cells, 1.2×10^5 cells per sample were seeded, treated with compound for 6 hours and stimulated with either IL-1β or TNFα for 60 minutes. Jurkat T-cells and primary mouse CD4^+ T-cells were seeded at 2×10^5 cells per sample, also treated with compound for 6 hours and stimulated with PMA/lonomycin for 3 hours. RNA was isolated according to the manufacturer's protocol of the Qiagen RNeasy Kit (MEF cells) or the STRATEC INVITRAP® SPIN UNIVERSAL RNA MINI KIT (Jurkat T-cells). The isolation of mRNA from […] white adipose tissue from DIO mice was performed using TRIzol® Reagent according to manufacturer's instruction. To clear the isolated RNA from genomic DNA, samples (up to 5 μg RNA) were treated with RQ1 RNase-Free DNaseI (Promega) as described in the technical manual. For the reverse transcription of RNA into cDNA, the DNaseI digested RNA samples were processed using the SuperScript III First Strand cDNA Synthesis System (Invitrogen/ThermoFisher Scientific) following the manufacturer's protocol. […] For quantification of cDNA in the samples, the LightCylcer480 (Roche) and the KAPA SYBR FAST qPCR Kit were used. For relative quantification, the ΔΔCp method first described by Pfaffl (Pfaffl, M. W., A new mathematical model for relative quantification in real-time RT-PCR. Nucleic Acids Res, 2001. 29(9): p. e45) was applied.

IL-2 and TNFα [2] = assay: ELISA cytokine secretion of Jurkat T-cells; format: cell-based, human; conditions: PMA/Ionomycin
Experimental: For measurement of cytokine secretion, 2×10^5 Jurkat T-cells or primary CD4^+ T-cells or human PBMCs per sample were seeded, treated with compound for 6 hours and stimulated as indicated. 20 hours after stimulation, supernatants were harvested and analyzed with the IL-2, IL-1β and TNFα Ready-Set-Go! ELISA (2nd Generation) kits provided by Affymatrix eBioscience.

CYP450 = CYP450 inhibition; format: in vitro ADME
Experimental: All ADME (plasma stability, plasma protein binding, microsomal stability, Log D, Caco-2 assay, CYP450 inhibition and hERG predictor assay) as well as pharmacokinetic studies (Tmax, Cmax, AUC0-240 min, Mean Residence Time, Elimination half life, Elimination rate constant, Volume of Distribution and Clearance) of C25-140 (compound 3) were conducted by Bienta Enamine Biology Services of Bienta/Enamine Ltd.

[3] = test system: 87 primary molecular targets; assay: SafetyScreen87 (Eurofins Cerep Panlabs); format: binding; conditions: 10 μM
Experimental: The SafetyScreen87, a total of 87 assays, was carried out at Eurofins Cerep Panlabs. 87 primary molecular targets including 13 enzyme assays (kinases and non-kinase enzymes) and 74 binding assays (nuclear receptors, GPCRs, transporters and ion channels) were performed at a compound concentration of 10 μM C25-140. Each of the 87 assay reactions was performed at the optimised condition that was historically available at Eurofins Cerep Panlabs. In parallel to C25-140, a reference compound for each of the 87 reactions was concurrently tested to guarantee optimal setting of the assays. In this study the reference compounds performed in the same range as historic Ki values.

[4] = test system: U2932 (ABC DLBCL-MYD88 wt); assay: Cell viability in DLBCL, U2932; format: cell-based; conditions: 30 μM added at day 0, 4 and 8; 9 days
Experimental: To determine the effects of C25-140 on MYD88-dependent ABC-DLBCL, we chose the HBL1 (ABC-DLBCL-MYD88 L265P), U2932 (ABC DLBCL-MYD88 wt) and BJAB (GCB DLBCL) cell lines. 1×10^6 cells of each cell line was seeded in 5 ml and treated with 30 μM compound C25-140 (compound 3) or DMSO. The entire experiment was carried out for 9 days. Every day 500 μl were taken and viable cell number was acquired using the ViCEII cell counter (Beckmann Coulter). At days 4 and 8 of the experiment the volume was again adjusted to 5 ml and samples were supplemented with 30 μM compound C25-140 or DMSO. This process was necessary to ensure linear proliferation of DMSO treated cells. All curves of C25-140 treated samples were referred to the corresponding DMSO treated controls.

T1 sequence (Q13490 whole entry): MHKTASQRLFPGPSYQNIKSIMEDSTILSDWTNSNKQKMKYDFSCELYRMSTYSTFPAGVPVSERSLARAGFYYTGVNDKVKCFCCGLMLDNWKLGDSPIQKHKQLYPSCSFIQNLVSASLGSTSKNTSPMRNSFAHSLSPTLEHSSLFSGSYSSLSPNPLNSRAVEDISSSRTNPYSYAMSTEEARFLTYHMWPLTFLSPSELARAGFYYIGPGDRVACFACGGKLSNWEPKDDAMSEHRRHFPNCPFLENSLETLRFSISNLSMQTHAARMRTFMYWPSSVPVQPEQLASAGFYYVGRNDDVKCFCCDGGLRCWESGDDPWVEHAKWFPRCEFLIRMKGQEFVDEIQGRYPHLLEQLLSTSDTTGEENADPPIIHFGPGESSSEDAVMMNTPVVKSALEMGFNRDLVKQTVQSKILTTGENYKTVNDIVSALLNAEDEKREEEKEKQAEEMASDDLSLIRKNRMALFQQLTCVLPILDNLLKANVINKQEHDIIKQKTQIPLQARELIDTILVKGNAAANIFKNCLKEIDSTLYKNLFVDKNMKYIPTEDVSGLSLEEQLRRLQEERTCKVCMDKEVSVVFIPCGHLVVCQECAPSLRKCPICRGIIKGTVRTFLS

auto-ubiquitination of clAP1 (clAP1): dose-dependently diminished
Structure (SMILES): Cc1nn(-c2ccc3nnc(C)n3n2)c(C)c1CCC(=O)N1CCC(Cc2ccccc2)CC1 [Compound 3, 1-(4-benzylpiperidin-1-yl)-3-(3,5-dimethyl-1-(3-methyl-[1,2,4]triazolo[4,3-b]pyridazin-6-yl)-1H-pyrazol-4-yl)propan-1-one]
IKK kinase activity (IKK kinase activity): diminished
mRNA levels of IL-2 and TNFα (IL-2 and TNFα [1]): dose-dependently decreased
cytokine secretion of IL-2 and TNFα (IL-2 and TNFα [2]): dose-dependently decreased
CYP450 inhibition (CYP450): some inhibitory potential on selected CYPs
binding to SafetyScreen87 targets [3]: no significant binding
viability (cell count) [4]: only slightly affected
